Assay results: patent publication US7153881B2, “Compounds acting as melanocortin receptor ligands” (Acure Pharma AB, priority 2001, dated 2006)

Legend:
MC4 [1] = molecular target: T1, MC4 (Homo sapiens, UniProt P32245); experiment: Affinity for the MC4-receptors, binding assay using I125-NDP-αMSH as ligand
Experimental: (§1) Test 2. Affinity for the MC3-receptors, the MC4-receptors and the MC5-receptors
(§2) The binding assays were carried out essentially as described by Szardenings et al, J Biol Chem 1997; 272; 27943–27948 and Schiöth et al, FEBS Lett 1997; 410; 223–228 using I125-NDP-αMSH as ligand.

MC5-receptors = MC5-receptors (Homo sapiens, UniProt P33032); experiment: Affinity for the MC5-receptors, binding assay using I125-NDP-αMSH as ligand
Sequence of MC5-receptors (P33032 whole entry): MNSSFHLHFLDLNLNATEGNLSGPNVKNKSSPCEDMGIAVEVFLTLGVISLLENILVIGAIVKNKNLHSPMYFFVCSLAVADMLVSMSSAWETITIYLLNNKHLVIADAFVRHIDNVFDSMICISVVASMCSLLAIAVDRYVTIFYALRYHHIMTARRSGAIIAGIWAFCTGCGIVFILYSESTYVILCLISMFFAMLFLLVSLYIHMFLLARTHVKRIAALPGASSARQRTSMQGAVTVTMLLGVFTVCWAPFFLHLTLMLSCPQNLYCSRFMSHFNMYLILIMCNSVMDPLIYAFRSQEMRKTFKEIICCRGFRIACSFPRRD
Experimental: as §1, §2

MC1 = MC1 (Homo sapiens, UniProt Q01726); experiment: Stimulation of cAMP, MC1; format: cell-based; settings: response given relative to α-MSH
Sequence of MC1 (Q01726 whole entry): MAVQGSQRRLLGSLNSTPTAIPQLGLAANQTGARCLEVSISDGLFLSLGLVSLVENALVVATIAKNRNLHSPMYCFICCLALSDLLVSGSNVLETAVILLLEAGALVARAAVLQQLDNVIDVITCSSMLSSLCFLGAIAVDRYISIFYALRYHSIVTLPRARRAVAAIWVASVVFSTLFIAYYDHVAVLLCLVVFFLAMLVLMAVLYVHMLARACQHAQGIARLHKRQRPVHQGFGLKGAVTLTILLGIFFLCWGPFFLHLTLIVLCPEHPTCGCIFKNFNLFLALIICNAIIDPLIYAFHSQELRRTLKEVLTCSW
Experimental: (§3) The stimulation of cAMP was carried out essentially as described by Schiöth et al, Br J Pharmacol 1998; 124; 75–82, however, the response is given relative to α-MSH.

MC3 [2] = molecular target: T2, MC3 (Homo sapiens, UniProt P41968); experiment: Stimulation of cAMP, MC3; format: cell-based; settings: response given relative to α-MSH
T2 sequence (P41968 whole entry): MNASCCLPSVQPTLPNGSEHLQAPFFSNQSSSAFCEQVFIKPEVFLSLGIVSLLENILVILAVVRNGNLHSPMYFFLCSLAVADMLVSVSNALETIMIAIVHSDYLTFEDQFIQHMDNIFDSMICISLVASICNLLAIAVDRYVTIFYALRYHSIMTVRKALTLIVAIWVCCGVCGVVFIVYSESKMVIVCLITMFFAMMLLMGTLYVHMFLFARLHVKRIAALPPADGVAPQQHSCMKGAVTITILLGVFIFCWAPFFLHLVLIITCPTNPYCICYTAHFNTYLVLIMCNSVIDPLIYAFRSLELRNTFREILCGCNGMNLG
Experimental: as §3

MC4 [3] = molecular target: T1, MC4; experiment: Stimulation of cAMP, MC4; format: cell-based; settings: response given relative to α-MSH
Experimental: as §3

MC3 [4] = molecular target: T2, MC3; experiment: Affinity for the MC3-receptors, binding assay using I125-NDP-αMSH as ligand
Experimental: as §1, §2

T1 sequence (P32245 whole entry): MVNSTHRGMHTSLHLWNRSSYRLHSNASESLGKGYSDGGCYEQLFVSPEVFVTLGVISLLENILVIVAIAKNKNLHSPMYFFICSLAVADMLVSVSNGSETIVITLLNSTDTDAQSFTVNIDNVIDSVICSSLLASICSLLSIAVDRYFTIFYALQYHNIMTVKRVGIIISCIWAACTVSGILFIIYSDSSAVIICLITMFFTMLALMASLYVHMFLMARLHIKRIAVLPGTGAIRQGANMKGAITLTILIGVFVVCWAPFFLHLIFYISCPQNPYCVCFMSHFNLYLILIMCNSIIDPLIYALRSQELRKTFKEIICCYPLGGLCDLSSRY

Compound	melting point	further results
N=C(NCc1ccccc1)NN=Cc1ccc(O)cc1 [Compound 18, N-(4-hydroxybenzylideneamino)-N′-benzylguanidine]	192 to 194 °C	
N=C(NN=Cc1cc([N+](=O)[O-])ccc1F)Nc1ccccc1 [Compound 17, N-(2-fluoro-5-nitrobenzylideneamino)-N′-phenylguanidine]	191 to 193 °C	
COc1ccc(C=NNC(=N)Nc2ccccc2)c(Cl)c1OC [Compound 16, N-(2-chloro-3,4-dimethoxybenzylideneamino)-N′-phenylguanidine]	179 to 181 °C	
COc1ccc(C=NNC(=N)NCCc2ccccc2)cc1 [Compound 10, N-(4-methoxybenzylideneamino)-N′-(2-phenylethyl)guanidine]	126 to 128 °C	
N=C(NCc1ccccc1)NN=Cc1cccn1-c1ccc(Cl)cc1 [Compound 29, N-[1-(4-Chlorophenyl) 1H-pyrrol-2-ylmethyleneamino]-N′-benzylguanidine]	190 to 192 °C	Ki (MC4 [1]): 0.61 µM; Ki (MC5-receptors): 1.32 µM; cAMP agonist/plateau stim. α-MSH (%) MC1 (MC1): 10%; cAMP agonist/plateau stim. α-MSH (%) MC3 (MC3 [2]): 3%; cAMP agonist/plateau stim. α-MSH (%) MC4 (MC4 [3]): 111%
N=C(NCCc1ccccc1)NN=Cc1c[nH]c2ccccc12 [Compound 12, N-(1H-indol-3-ylmethylideneamino)-N′-(2-phenylethyl)guanidine]	207 to 209 °C	
COc1ccc(C=NNC(=N)NCc2ccccc2)c(Cl)c1OC [Compound 1, N-(2-chloro-3,4-dimethoxybenzylideneamino)-N′-benzylguanidine]	215 to 217 °C	
COc1ccc(C=NNC(=N)NN=Cc2ccc(OC)c(OC)c2Cl)c(Cl)c1OC [Compound 32, N,N′-Di-(2-Chloro-3,4-Dimethoxybenzylideneamino)guanidine]	228 to 230 °C	
N=C(NCc1cccc2ccccc12)NN=Cc1ccncc1 [Compound 11, N-(pyrid-4-yl-methylideneamino)-N′-(naphthalen-1-yl-methyl)guanidine]	260 to 262 °C	
N=C(N)N(Cc1cccc2ccccc12)N=Cc1c[nH]c2ccccc12 [Compound 13, N-(1H-indol-3-yl-methylideneamino)-N-(naphthalen-1-ylmethyl)guanidine]	213 to 215 °C	
N=C(NN=Cc1ccccc1Br)Nc1ccccc1 [Compound 28, N-(2-Bromobenzylideneamino)-N′-phenylguanidine]	149 to 152 °C	
N=C(NCCc1ccccc1)NN=CC=Cc1ccccc1 [Compound 33]	175 to 177 °C	Ki (MC3 [4]): 5.36 µM; Ki (MC4 [1]): 3.59 µM; Ki (MC5-receptors): 8.23 µM; cAMP agonist/plateau stim. α-MSH (%) MC1 (MC1): 8%; cAMP agonist/plateau stim. α-MSH (%) MC3 (MC3 [2]): 4%; cAMP agonist/plateau stim. α-MSH (%) MC4 (MC4 [3]): 161%
N=C(NCCc1ccccc1)NN=Cc1ccc2ccccc2c1 [Compound 21, N-(naphthalen-2-yl-methylideneamino)-N′-(2-phenylethyl)guanidine]	244 to 246 °C	
CNC(=N)NN=Cc1ccc(OC)c(OC)c1Cl [Compound 37, N-(2-Chloro-3,4-dimethoxybenzylideneamino)-N′-methylguanidine]	207 to 210 °C	
N=C(NN=Cc1c[nH]c2ccccc12)NN=Cc1c[nH]c2ccccc12 [Compound 14, N,N′-bis[1H-indol-3-yl-methylideneamino]guanidine]	296 to 298 °C	
N=C(NCc1ccccc1)NN=Cc1ccc([N+](=O)[O-])cc1 [Compound 24, N-(4-Nitrobenzylideneamino)-N′-benzylguanidine]	239 to 241 °C	
N=C(NN=Cc1ccc2ccccc2c1)Nc1ccc2ccccc2c1 [Compound 23, N-(naphthalen-2-yl-methylideneamino)-N′-naphthalen-2-ylguanidine]	218 to 220 °C	
N=C(NCCc1ccccc1)NN=Cc1ccccc1Br [Compound 27, N-(2-Bromobenzylideneamino)-N′-phenethylguanidine]	154 to 155 °C	Ki (MC3 [4]): 7.96 µM; Ki (MC4 [1]): 1.35 µM; Ki (MC5-receptors): 5.8 µM; cAMP agonist/plateau stim. α-MSH (%) MC1 (MC1): 12%; cAMP agonist/plateau stim. α-MSH (%) MC3 (MC3 [2]): 9%; cAMP agonist/plateau stim. α-MSH (%) MC4 (MC4 [3]): 97%
N=C(NN=Cc1ccc([N+](=O)[O-])cc1[N+](=O)[O-])Nc1ccccc1	180 to 190 °C	
CNC(=N)NN=Cc1cc([N+](=O)[O-])ccc1F [Compound 35, N-(2-Fluoro-5-nitrobenzylideneamino)-N′-methylguanidine]	217 to 219 °C	
N=C(NCCc1ccccc1)NN=Cc1ccc([N+](=O)[O-])cc1 [Compound 20, N-(4-nitrobenzylideneamino)-N′-(2-phenylethyl)guanidine]	241 to 243 °C	
N=C(NN=Cc1cccc2ccccc12)NN=Cc1cccc2ccccc12 [Compound 30, N,N′-Di-(naphthalen-1-ylmethyleneamino)guanidine]	253 to 255 °C	
COc1ccc(C=NNC(=Nc2ccccc2)NO)c(Cl)c1OC [Compound 2, N-(2-chloro-3,4-dimethoxybenzylideneamino)-N′-hydroxy-N″-phenylguanidine]	167 to 169 °C	
N=C(NN=Cc1cccn1-c1ccc(Cl)cc1)NN=Cc1cccn1-c1ccc(Cl)cc1 [Compound 34, N,N′-Di-(1-(4-Chlorophenyl)-1H-pyrrol-2-ylmethyleneamino)guanidine]	221 to 223 °C	
